Reference: patent US11254640B2, “N-substituted indoles and other heterocycles for treating brain disorders” (The Regents of the University of California, priority 2019, dated 2022)
Like-named read-outs stand apart in the source and are kept apart here.

Tests used:
Format in all cases: cell-based
5HT2A sensor [1] = assay: 5HT2A sensor assay, antagonist mode (sLight1.3s HEK293T stable line); settings: relative to 5-HT at 100 nM; for 5HT2A Antagonist mean @ 100 nM (%): 100 nM compound; for 5HT2A Antagonist mean @ 10 μM (%): 10 μM compound; for 5HT2A Antagonist mean @ 100 μM (%): 100 μM compound
Description: In some embodiments, the 5HT2A sensor assay is in an antagonist mode.
(§1) 5HT2A Sensor Assays. HEK293T (ATCC) 5HT2A sensor stable line (sLight1.3s) was generated via lentiviral transduction of HIV-EF1α-sLight1.3 and propagated from a single colony. Lentivirus was produced using 2nd generation lentiviral plasmids pHIV-EF1α-sLight1.3, pHCMV-G, and pCMV-deltaR8.2.
(§2) For the screening of the 41 compounds, sLight1.3s cells were plated in 96-well plates at a density of 40000 24-hours prior to imaging. On the day of imaging, compounds solubilized in DMSO were diluted from the 100 mM stock solution to working concentrations of 1 mM, 100 μM and 1 μM with a DMSO concentration of 1%. Immediately prior to imaging, cells growing in DMEM (Gibco) were washed 2× with HBSS (Gibco) and in agonist mode 180 μL of HBSS or in antagonist mode 160 μL of HBSS was added to each well after the final wash. For agonist mode, images were taken before and after the addition of the 20 μL compound working solution into the wells containing 180 μL HBSS. This produced final compound concentrations of 100 μM, 10 μM and 100 nM with a DMSO concentration of 0.1%. For antagonist mode, images were taken before and after addition of 20 μL of 900 nM 5-HT and again after 20 μL of the compound working solutions to produce final concentrations of 100 nM for 5HT and 100 μM, 10 μM and 100 nM for the compounds with a DMSO concentration of 0.1%. Each compound was tested in triplicates (3 wells) for each concentration (100 μM, 10 μM and 100 nM). Additionally, within each plate, 100 nM 5HT and 0.1% DMSO controls were also imaged.
(§3) Imaging was performed using the Leica DMi8 inverted microscope with a 40× objective using the FITC preset with an excitation of 460 nm and emission of 512-542 nm. For each well, the cellular membrane where the 5HT2A sensor is targeted was autofocused using the adaptive focus controls and 5 images from different regions within the well were taken with each image processed from a 2×2 binning.
(§4) For data processing, the membranes from each image was segmented and analyzed using a custom algorithm written in MATLAB producing a single raw fluorescence intensity value. For each well the 5 raw fluorescence intensity values generated from the 5 images were averaged and the change in fluorescence intensity (dFF) was calculated as: dFF=(Fsat−Fapo)/Fapo
(§5) For both agonist and antagonist modes, the fluorescence intensity values before compound addition in HBSS only were used as the Fapo values while the fluorescence intensity values after compound addition were used as the Fsat values.
(§6) For agonist mode, data are as percent activation relative to 5HT, where 0 is the average of the DMSO wells and 100 is the average of the 100 uM 5HT wells. For antagonist mode, the inactivation score was calculated as: Inactivation score=(dFFF(Compound+5HT)−dFF(5HT))/dFF(5HT)

5HT2A = biological target: T1, 5HT2A (Homo sapiens, UniProt P28223); assay: Calcium flux assay (Calcium secondary messenger pathway); settings: agonist mode
T1 construct: expressed in transfected cells
T1 sequence (P28223 whole entry): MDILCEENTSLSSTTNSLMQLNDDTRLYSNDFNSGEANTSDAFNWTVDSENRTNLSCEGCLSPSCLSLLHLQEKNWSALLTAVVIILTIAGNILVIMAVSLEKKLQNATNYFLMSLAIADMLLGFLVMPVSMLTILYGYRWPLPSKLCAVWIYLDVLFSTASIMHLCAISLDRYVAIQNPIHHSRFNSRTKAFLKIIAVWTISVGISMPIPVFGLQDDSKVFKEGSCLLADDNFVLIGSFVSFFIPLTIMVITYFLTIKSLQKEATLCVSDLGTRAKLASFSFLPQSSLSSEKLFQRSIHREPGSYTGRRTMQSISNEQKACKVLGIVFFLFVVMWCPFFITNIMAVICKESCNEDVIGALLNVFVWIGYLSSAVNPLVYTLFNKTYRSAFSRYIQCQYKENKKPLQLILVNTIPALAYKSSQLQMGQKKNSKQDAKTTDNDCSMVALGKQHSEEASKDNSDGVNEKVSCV
Source text: Calcium Flux Assay. Calcium Secondary Messenger Pathway. The Calcium No Wash^PLUS assay monitors the activation of a GPCR (e.g., 5HT2A) via Gq secondary messenger signaling in a live cell, non-imaging assay format. Calcium mobilization in PathHunter® cell lines or other cell lines stably expressing Gq-coupled GPCRs (e.g., 5HT2A) is monitored using a calcium-sensitive dye that is loaded into cells. GPCR (e.g., 5HT2A) activation by a compound results in the release of calcium from intracellular stores and an increase in dye fluorescence that is measured in real-time. In some embodiments, the ability of a compound of the present invention to modulate 5-HT2A function is determined using a calcium flux assay. In some embodiments, a compound of the present invention activates a calcium flux assay.
Calcium Secondary Messenger Pathway. Cell lines were expanded from freezer stocks according to standard procedures. Cells were seeded in a total volume of 20 μL into black-walled, clear-bottom, Poly-D-lysine coated 384-well microplates and incubated at 37° C. for the appropriate time prior to testing. Assays were performed in 1× Dye Loading Buffer consisting of 1× Dye, 1× Additive A and 2.5 mM Probenecid in HBSS/20 mM Hepes. Probenicid was prepared fresh. Cells were loaded with dye prior to testing. Media was aspirated from cells and replaced with 20 μL Dye Loading Buffer. Cells were incubated for 30-60 minutes at 37° C.
For agonist determination, cells were incubated with sample to induce response. After dye loading, cells were removed from the incubator and 10 μL HBSS/20 mM Hepes was added. 3× vehicle was included in the buffer when performing agonist dose curves to define the EC80 for subsequent antagonist assays. Cells were incubated for 30 minutes at room temperature in the dark to equilibrate plate temperature. Intermediate dilution of sample stocks was performed to generate 4× sample in assay buffer. Compound agonist activity was measured on a FLIPR Tetra (MDS). Calcium mobilization was monitored for 2 minutes and 10 μL 4× sample in HBSS/20 mM Hepes was added to the cells 5 seconds into the assay.
Compound activity was analyzed using CBIS data analysis suite (ChemInnovation, CA). For agonist mode assays, percentage activity is calculated using the following formula: % Activity=100%×(mean RFU of test sample−mean RFU of vehicle control)/(mean MAX RFU control ligand−mean RFU of vehicle control).

rat cortical neurons = assay: Neurite outgrowth assay; settings: Cortical neurone, 1 hour treatment at DIV 4, analysed DIV 7, fold vs DMSO control
Source text: Neurite outgrowth assay. Changes in the pattern of neurite outgrowth have been implicated in neurodegenerative disorders as well as traumatic injuries. The discovery of new compounds that can positively affect neuritogenesis are important for developing new therapeutics for neurological diseases. Measurement of neurite outgrowth of rat cortical neurons using an automated image-based assay was used to determine the neuroplastic effects of the compounds of the present invention. In some embodiments, a compound of the present invention increases the pattern of neurite outgrowth. In some embodiments, a compound of the present invention increases neurite average length compared to a control. In some embodiments, a compound of the present invention increases neurite branch points compared to a control. In some embodiments, a compound of the present invention increases neurite average length and neurite branch points compared to a control.
Neurite Outgrowth Assay. Rat cortical neurons (20,000 cells/well) were freshly isolated from embryonic day 18 rats and cultured in Neurobasal Medium (+B27). The cultured cells were plated in 96 well-plates (avoiding external wells). At DIV 4, the neurons were treated with compound or control (10 μM) for 1 hour followed by complete washout of the compound. At DIV 7, the neurons were analyzed. The experiments were performed in triplicate. Neurite outgrowth was measured analyzing the following parameters: Number of Cell Bodies, total neurite length (pixels), Root Count, Segments, Extremities Count and node points. Changes in the pattern of neurite outgrowth of the neurons were analyzed by immunocytochemistry against β-III-tubulin. Pictures were acquired by the CellInsight CX7 from Thermo Fisher and analyzed using its software. Results generated in the equipment were maximum neurite length, extremity count, root count, dendrite branch points, and total neurite length. The results were compared to DMSO control, representing the fold-change in neuronal outgrowth.

5HT2A sensor [2] = assay: 5HT2A sensor assay, agonist mode (sLight1.3s HEK293T stable line); settings: percent relative to 5-HT at 100 uM; for 5HT2A Agonist mean @ 100 nM (%): 100 nM compound; for 5HT2A Agonist mean @ 10 μM (%): 10 μM compound; for 5HT2A Agonist mean @ 100 μM (%): 100 μM compound
Description: In some embodiments, hallucinogenic potential of a compound of the present invention is determined in vitro. In some embodiments, hallucinogenic potential of a compound of the present invention is determined using a 5HT2A sensor assay. In some embodiments, the 5HT2A sensor assay is in an agonist mode or an antagonist mode. In some embodiments, the 5HT2A sensor assay is in an agonist mode.
as §1, §2, §3, §4, §5, §6

[3] = read-out: Neurite Average Length @ 10 μM
[4] = read-out: Neurite Branch Points: @ 10 μM

| Structure (SMILES) | 5HT2A Antagonist mean @ 100 nM (%) (5HT2A sensor [1]) | 5HT2A Antagonist mean @ 10 μM (%) (5HT2A sensor [1]) | 5HT2A Antagonist mean @ 100 μM (%) (5HT2A sensor [1]) | EC50 (5HT2A) [µM] | fold induction at 10 µM (rat cortical neurons; [3]) | fold induction at 10 µM (rat cortical neurons; [4]) | 5HT2A Agonist mean @ 100 nM (%) (5HT2A sensor [2]) | 5HT2A Agonist mean @ 10 μM (%) (5HT2A sensor [2]) | 5HT2A Agonist mean @ 100 μM (%) (5HT2A sensor [2]) |
| --- | --- | --- | --- | --- | --- | --- | --- | --- | --- |
| FC(F)(F)Oc1ccc2c(ccn2CCN2CCCCC2)c1 [Example 51, 1-(2-(piperidin-1-yl)ethyl)-5-(trifluoromethoxy)-1H-indole] | A (inhibits 5HT response by >100%) | A (inhibits 5HT response by >100%) | A (inhibits 5HT response by >100%) | > 10 | 1.5 to 3 | 1.5 to 3 | B (does not activate 5HT2A sensor assay in agonist mode) | B (does not activate 5HT2A sensor assay in agonist mode) | B (does not activate 5HT2A sensor assay in agonist mode) |
| FC(F)(F)Oc1ccc2c(ccn2CCN2CCOCC2)c1 [Example 52, 4-(2-(5-(trifluoromethoxy)-1H-indol-1-yl)ethyl)morpholine] | A (inhibits 5HT response by >100%) | B (inhibits 5HT response by 75% to 100%) | B (inhibits 5HT response by 75% to 100%) | > 10 | 1.5 to 3 | 1.5 to 3 | B (does not activate 5HT2A sensor assay in agonist mode) | B (does not activate 5HT2A sensor assay in agonist mode) | A (activates 5HT2A sensor assay in agonist mode) |
| CN(C)CCn1cnc2ccccc21 [Example 57, 2-(1H-benzo[d]imidazol-1-yl)-N,N-dimethylethan-1-amine] | B (inhibits 5HT response by 75% to 100%) | A (inhibits 5HT response by >100%) | A (inhibits 5HT response by >100%) | > 10 | 1.5 to 3 | 1.5 to 3 | B (does not activate 5HT2A sensor assay in agonist mode) | B (does not activate 5HT2A sensor assay in agonist mode) | B (does not activate 5HT2A sensor assay in agonist mode) |
| Cc1nc2ccccc2n1CCN(C)C [Example 58, N,N-dimethyl-2-(2-methyl-1H-benzo[d]imidazol-1-yl)ethan-1-amine] | A (inhibits 5HT response by >100%) | A (inhibits 5HT response by >100%) | A (inhibits 5HT response by >100%) | > 10 | 1.5 to 3 | 1.5 to 3 | B (does not activate 5HT2A sensor assay in agonist mode) | B (does not activate 5HT2A sensor assay in agonist mode) | A (activates 5HT2A sensor assay in agonist mode) |
| COc1cc2ccn(C[C@@H](C)N(C)C)c2cc1F [Example 61, (R)-1-(6-fluoro-5-methoxy-1H-indol-1-yl)-N,N-dimethylpropan-2-amine] | A (inhibits 5HT response by >100%) | A (inhibits 5HT response by >100%) | A (inhibits 5HT response by >100%) | > 10 | 1.5 to 3 | 1.5 to 3 | B (does not activate 5HT2A sensor assay in agonist mode) | B (does not activate 5HT2A sensor assay in agonist mode) | B (does not activate 5HT2A sensor assay in agonist mode) |
